Key:
IP L1210 = experiment: Activity against IP-implanted L1210 leukemia sensitive to cisplatin, 60 day test (Table 4); assay type: in vivo, Female CD2Fl mice
Experimental: (§1) Biological properties of the compounds of the present invention were determined following the protocol described in Cancer Chemotherapy Reports, Vol. 3, No. 3, 1972 which report is incorporated herein by reference.
(§2) Other known mechanisms of resistance for other classes of agents, such as gene amplification or target enzyme change or amplication, also need to be explored. The experiments summarized in Table 3 were conducted at the same time against both sublines using the same drug preparations. […] These experiments were repeated in a second laboratory as documented in Table 4. However, in these experiments the animals were held for 60 rather than 30 days to evaluate whether or not long-term survivors are produced after drug treatment in a more challenging setting.
This experiment (A8-00005 3LE31) was conducted at the Southern Research Institute, Birmingham, Ala. under the supervision of Dr. Daniel Griswold. The protocols were the same as those published previously (Geran et al., Cancer Chemotherapy Reports 3: No. 2, 1972 [Attachment 11]). 10^5 cells were implanted intraperitoneally in CD2Fl male mice on Day 0. Drug treatments were given intraperitoneally as single injections at the doses indicated on Days 1, 5 and 9 after tumor implantation. The diluent was saline except for NSC-271674 where 5% sodium bicarbonate was used. All drugs were prepared fresh on the day of injection, and all were administered in solution. Median survival times for both control and drug-treated mice were determined and expressed as a percentage (% T/C). Body weights were determined on Day 5 and expressed as a weight difference (body weight of the drug-treated animals minus that of the control animals in grams) (T-C). The diluent control animals lived a median of 8.4 days and gained 1.9 grams by Day 5 in this experiment. All animals, including Day 30 survivors, were used in the calculation of median survival times. The log10 change in tumor burden refers to the net log change in viable tumor cell population at the end of therapy (Rx) as compared to the start of therapy; e.g., a […] means that there was a […] and a 3 log change means there was a 1000-fold increase in tumor burden at the end of therapy. The tumor burden at the start of therapy was about 6.1×10^5 cells in this experiment.
(§3) These experiments (23-00081 3LE31 and 23-00003 3DP3l) were conducted concurrently at the Mason Research Institute, Worcester, MA under the supervision of Dr. William Cobb. See Table 4 for experimental details. The diluent control animals bearing L1210 leukemia lived a median of 8.3 days and gained 1.6 grams by Day 5. […] Female CD2Fl mice were used for these experiments.

IP L1210/Cisplatin = experiment: Activity against IP-implanted L1210/Cisplatin leukemia resistant to cisplatin, 60 day test (Table 4); assay type: in vivo, Female CD2Fl mice
Experimental: as §1
as §2, with “setting. […]” for “setting.”
as §3

[1] = system: SC Implanted L1210 Leukemia; experiment: Activity against SC implanted L1210 leukemia following intravenous administration, once daily Days 1-5 (Table 5); assay type: in vivo, CD2Fl male mice
Experimental: as §1
In another type of experiment the same platinum complexes were directly compared against the SC implanted L1210 following intravenous administration (Table 5).
This experiment (A8-00004 3LE32) was conducted at the Southern Research Institute, Birmingham, Ala. under the supervision of Dr. Daniel Griswold. The protocols were the same as those published previously (Attachment 11). 10^6 cells were implanted subcutaneously in CD2Fl male mice on Day 0. Drug treatments were given intravenously once daily at the doses indicated on Days 1-5 after tumor implantation. The dosage range tested included the highest and lowest doses indicated in the Table as well as intermediate values which were determined by multiplying each dose in turn by 0.5 starting with the highest dose. The diluent was saline except for NSC-271674 for which 5% sodium bicarbonate was used. All drugs were prepared fresh on the day of injection, and all were administered in solution. Median survival times for both control and drug-treated mice were determined and expressed as a percentage (% T/C). Body weights were determined on Day 5 and expressed as a weight difference (body weight of the drug-treated animals minus that of the control animals in grams) (T-C).

Question: For `N.N.[Cl][Pt][Cl]` [Cisplatin, cis-diamminedichloroplatinum (II), reference compound], which “60 Day Survivors/Total” value (IP L1210; 1.25 mg/kg/dose) is on record?
Answer: Its value is 0/10.

Question: And the “Body Weight Difference” value (IP L1210; 1.25 mg/kg/dose)?
Answer: Its value is -0.6 Grams.

Question: What about the “Median % T/C” value (IP L1210; 1.25 mg/kg/dose) of the same molecule?
Answer: The value was 127%.

Question: And the “60 Day Survivors/Total” value (IP L1210; 5 mg/kg/dose)?
Answer: Its value is 0/10.

Question: And the “Body Weight Difference” value (IP L1210; 5 mg/kg/dose)?
Answer: Its value is -2.4 Grams.

Question: And the “Median % T/C” value (IP L1210; 5 mg/kg/dose)?
Answer: The value was 240%.

Question: And the “60 Day Survivors/Total” value (IP L1210; 10 mg/kg/dose)?
Answer: The value was 0/10.

Question: What about the “Body Weight Difference” value (IP L1210; 10 mg/kg/dose) of the same molecule?
Answer: The value was -5.1 Grams.

Question: And the “Median % T/C” value (IP L1210; 10 mg/kg/dose)?
Answer: The value was 107%.

Question: And the “60 Day Survivors/Total” value (IP L1210; 20 mg/kg/dose)?
Answer: Its value is 0/10.

Question: And the “Body Weight Difference” value (IP L1210; 20 mg/kg/dose)?
Answer: Its value is -5.8 Grams.

Question: And the “Median % T/C” value (IP L1210; 20 mg/kg/dose)?
Answer: Its value is “Toxic”.

Question: And the “60 Day Survivors/Total” value (IP L1210/Cisplatin; 1.25 mg/kg/dose)?
Answer: Its value is 0/10.

Question: And the “Body Weight Difference” value (IP L1210/Cisplatin; 1.25 mg/kg/dose)?
Answer: The value was -0.1 Grams.

Question: And the “Median % T/C” value (IP L1210/Cisplatin; 1.25 mg/kg/dose)?
Answer: Its value is 103%.

Question: And the “60 Day Survivors/Total” value (IP L1210/Cisplatin; 5 mg/kg/dose)?
Answer: The value was 0/10.

Question: And the “Body Weight Difference” value (IP L1210/Cisplatin; 5 mg/kg/dose)?
Answer: Its value is -2.3 Grams.

Question: And the “Median % T/C” value (IP L1210/Cisplatin; 5 mg/kg/dose)?
Answer: Its value is 110%.

Question: What about the “60 Day Survivors/Total” value (IP L1210/Cisplatin; 10 mg/kg/dose) of the same molecule?
Answer: The value was 0/10.

Question: What about the “Body Weight Difference” value (IP L1210/Cisplatin; 10 mg/kg/dose) of the same molecule?
Answer: Its value is -5.1 Grams.

Question: And the “Median % T/C” value (IP L1210/Cisplatin; 10 mg/kg/dose)?
Answer: The value was 87%.

Question: And the “60 Day Survivors/Total” value (IP L1210/Cisplatin; 20 mg/kg/dose)?
Answer: Its value is 0/10.

Question: What about the “Body Weight Difference” value (IP L1210/Cisplatin; 20 mg/kg/dose) of the same molecule?
Answer: The value was -5.6 Grams.

Question: What about the “Median % T/C” value (IP L1210/Cisplatin; 20 mg/kg/dose) of the same molecule?
Answer: The value was “Toxic”.

Question: And the “Activity against L1210/cisplatin” value (IP L1210/Cisplatin; mouse, in vivo)?
Answer: The value was “lack of activity”.

Question: And the “Body Weight Difference” value ([1]; 5 mg/kg/inj IV)?
Answer: Its value is -5.7 Grams.

Question: And the “Median % T/C” value ([1]; 5 mg/kg/inj IV)?
Answer: The value was 138%.

Question: What about the “Median Survival Time” value ([1]; 5 mg/kg/inj IV) of the same molecule?
Answer: Its value is 14.3 days.

Question: What about the “Optimal Dose” value ([1]; IV once daily Days 1-5) of the same molecule?
Answer: The value was 5 mg/kg/inj.

Question: Which results are given for `N[C@@H]1CCCC[C@H]1N.O=C([O-])c1ccc(C(=O)[O-])c(C(=O)[O-])c1.[H+].[Pt+2]` [Carboxyphthalato Platinum, carboxyphthalatocyclohexanediamine platinum (II), reference compound]?
Answer: 60 Day Survivors/Total (IP L1210; 3.13 mg/kg/dose): 2/10; Body Weight Difference (IP L1210; 3.13 mg/kg/dose): -2.3 Grams; Median % T/C (IP L1210; 3.13 mg/kg/dose): 280%; 60 Day Survivors/Total (IP L1210; 6.25 mg/kg/dose): 2/10; Body Weight Difference (IP L1210; 6.25 mg/kg/dose): -3.5 Grams; Median % T/C (IP L1210; 6.25 mg/kg/dose): 313%; 60 Day Survivors/Total (IP L1210; 12.5 mg/kg/dose): 0/10; Body Weight Difference (IP L1210; 12.5 mg/kg/dose): -6.0 Grams; Median % T/C (IP L1210; 12.5 mg/kg/dose): Toxic; 60 Day Survivors/Total (IP L1210; 25 mg/kg/dose): 0/10; Median % T/C (IP L1210; 25 mg/kg/dose): Toxic; 60 Day Survivors/Total (IP L1210; 50 mg/kg/dose): 0/10; Median % T/C (IP L1210; 50 mg/kg/dose): Toxic; 60 Day Survivors/Total (IP L1210/Cisplatin; 3.13 mg/kg/dose): 6/10; Body Weight Difference (IP L1210/Cisplatin; 3.13 mg/kg/dose): -1.2 Grams; Median % T/C (IP L1210/Cisplatin; 3.13 mg/kg/dose): 645%; 60 Day Survivors/Total (IP L1210/Cisplatin; 6.25 mg/kg/dose): 2/10; Body Weight Difference (IP L1210/Cisplatin; 6.25 mg/kg/dose): -2.9 Grams; Median % T/C (IP L1210/Cisplatin; 6.25 mg/kg/dose): 236%; 60 Day Survivors/Total (IP L1210/Cisplatin; 12.5 mg/kg/dose): 0/10; Body Weight Difference (IP L1210/Cisplatin; 12.5 mg/kg/dose): -5.5 Grams; Median % T/C (IP L1210/Cisplatin; 12.5 mg/kg/dose): Toxic; 60 Day Survivors/Total (IP L1210/Cisplatin; 25 mg/kg/dose): 0/10; Body Weight Difference (IP L1210/Cisplatin; 25 mg/kg/dose): -3.7 Grams; Median % T/C (IP L1210/Cisplatin; 25 mg/kg/dose): Toxic; 60 Day Survivors/Total (IP L1210/Cisplatin; 50 mg/kg/dose): 0/10; Median % T/C (IP L1210/Cisplatin; 50 mg/kg/dose): Toxic; Body Weight Difference ([1]; 6.25 mg/kg/inj IV): -2.6 Grams; Median % T/C ([1]; 6.25 mg/kg/inj IV): 124%; Median Survival Time ([1]; 6.25 mg/kg/inj IV): 12.8 days; Body Weight Difference ([1]; 12.5 mg/kg/inj IV): -6.1 Grams; Median % T/C ([1]; 12.5 mg/kg/inj IV): 165%; Median Survival Time ([1]; 12.5 mg/kg/inj IV): 17.0 days; HNTD (highest nontoxic dose; animal weight difference ≥ -4.0 grams) ([1]; IV once daily Days 1-5): 6.25 mg/kg/inj; Optimal Dose ([1]; IV once daily Days 1-5): 12.5 mg/kg/inj

Reference: patent publication US4599352A, “Antineoplastic platinum (IV) complexes and compositions” (priority 1984, dated 1986)
